{"source": "paper PMC8280143", "about": "“A novel dephosphorylation targeting chimera selectively promoting tau removal in tauopathies” (Signal Transduction and Targeted Therapy, 2021)", "tested_on": "human tau N-terminal 1–368 fragment (hTau-N368)", "assay": "Hippocampal phosphorylated and total tau in dox-treated Tau368 mice", "type": "in vivo, mouse", "description": "Mice weighting 20–30 g were anesthetized with 1% pentobarbital sodium (35 mg/kg), and fixed in a stereotaxic instrument (RWD). The scalp was sterilized with iodophors and 75% ethanol, and incised along the skull midline. Holes were drilled. Adeno-associated virus or DEPTAC was injected into the dorsal DG (posterior 1.9 mm, lateral ±1.1 mm from the bregma, ventral −2.0 from the skull) or lateral ventricle (posterior 0.22 mm, lateral ±1.0 mm from the bregma, ventral −2.5 from the skull), respectively, using an automatic microinjection system (World Precision Instruments, USA) at a rate of 0.05 μL/min. The needle syringe was left in place for 5 min before withdrawal. The skin was sutured and sterilized with iodophors. Mice were placed on thermos tank for analepsia.\nFor 2-month male C57BL/6 mice, 10 mM FITC-labeled or unlabeled-DEPTAC were directly injected through the tail vein or lateral ventricle for the evaluation of BBB-penetrability. For 9-month 3×Tg AD mice or Tau368 (20–30 g body weight), unlabeled-DEPTAC (5 mM, 1 μL for each time) was delivered for once into the lateral ventricle through direct stereotaxic injection, or repeatedly administrated through guiding cannulas (RWD, Shenzhen, China) implanted into the lateral ventricle once every 3 days for a consecutive month to test its dephosphorylation efficiency. Mice were restricted in a custom designed device and stayed awake during drug administration, and sacrificed at 24 h post the single or last DEPTAC administration.\nCultured cells or hippocampus tissues were collected on ice, and homogenized with RIPA lysis buffer containing 50 mM Tris-HCl, 100 mM NaCl, 1% Triton X-100, 5 mM EDTA, and 1:100 PMSF, and then centrifuged at 12,000 × g for 20 min. The supernatant was collected for the analysis of soluble proteins. In some experiments, the pellets were further incubated with 8% SDS buffer at 37 °C and then ultrasound for 60 times to reach a complete resuspension for the analysis of insoluble tau. Protein concentration was measured through BCA assays (Thermo Fisher). Equal amount of protein from each sample were separated in SDS-PAGE gels, and then transferred onto nitrocellulose or 0.22 μm polyvinylidene fluoride membranes (Merck Millipore). The membranes were blocked with 5% BSA, and incubated in turn with primary and horseradish peroxidase-conjugated secondary antibodies: pS199-Tau (44734G, Invitrogen, 1:2000), pT205-Tau (11108-1, Signalway, 1:2000), pS396-Tau (11102, Signalway, 1:2000), pS404-Tau (11112, Signalway, 1:2000), AT8 (MN1020, Thermo Fisher, 1:1000), Tau5 (ab80579, Abcam, 1:1000), Tau46 (T9450, Sigma, 1:1000), PP2A-Bα (4953, Cell signaling, 1:1000), Phospho-Ser/Thr (ab17464, Abcam1:1000), Ubiquitin (ab7254, Abcam, 1:1000), MAP2 (AB5622, Millipore, 1:2000), hTau-N368 (a generous gift from Prof. Keqiang Ye, Emory University School of Medicine, 1:1000), DEPTAC (developed by Daian Biotechnology, Wuhan, China, 1:500), β-actin (ab6276, Abcam, 1:2000). HRP-conjugated goat anti-rabbit IgG (A0208, Beyotime, 1:3000), HRP-conjugated goat anti-mouse IgG (A0216, Beyotime, 1:3000). Blots were visualized using ECL luminol reagent (P0018FS, Beyotime), and quantified using ImageJ software.", "key": {"[1]": {"conditions": "DEPTAC for a consecutive month after stopping dox, **p < 0.01, n = 3 mice"}, "[2]": {"conditions": "dox kept on, DEPTAC i.c.v. by guiding cannula once every three days for a consecutive month, 10 μg total protein, *p < 0.05, n = 3–4"}, "[3]": {"conditions": "hippocampus of Tau368 mice, 24 h of post-DEPTAC administration"}}, "note": "“Also recorded” adds a separate entry of the source.", "data": [{"substance": "(1) YQQYQDATADEQG, originates from the porcine β-tubulin 422–434 for recognizing and binding tau proteins.[5],[6] (2) GSGS, a linker for increasing the flexibility of the peptide.[15] (3) KKVAVVRTPPKSP, for recruiting PP2A-Bα,[16] and (4) RRRRRRRR [DEPTAC, DEPhosphorylation TArgeting Chimera; 38 amino acid residues, C185H314N72O56]", "values": [{"measurement": "hippocampal phospho-tau after stopping the dox", "setting": "[1]", "value": "reduced; also recorded: downregulated"}, {"measurement": "hippocampal total tau after stopping the dox", "setting": "[1]", "value": "reduced; also recorded: downregulated"}, {"measurement": "degree of tau reduction by DEPTAC", "setting": "discussion, compared with tau knock-out or siRNA knock-down", "value": "far less than tau knock-out or siRNA-mediated knock-down"}, {"measurement": "hippocampal phospho-tau, dox kept on", "setting": "[2]", "value": "significantly reduced; also recorded: effectively facilitated the dephosphorylation"}, {"measurement": "hippocampal total tau, dox kept on", "setting": "[2]", "value": "significantly reduced; also recorded: effectively facilitated the dephosphorylation as well as the degradation of tau"}, {"measurement": "hippocampal phosphorylated tau", "setting": "dox-treated Tau368 mice, 5 mM, i.c.v., for a consecutive month / for once, 12–72 h post injection, n = 3–4", "value": "effective in reducing; also recorded: reduced phosphorylated and total tau prominently"}, {"measurement": "RIPA lysis buffer-insoluble tau", "setting": "[3]", "value": "tend to be decreased"}, {"measurement": "RIPA lysis buffer-soluble tau", "setting": "[3]", "value": "tend to be decreased"}]}]}
